Measurements as given in US8765907B2, “Production and use of antitumoral antibiotic and insecticidal cyclodepsipeptides” (Geomar Helmholtz-Zentrum fur Ozeanforschung Kiel, priority 2009, dated 2014).

Columns and labels:
[1] = system: GXF251L (gastric tumour cell line); assay: Anti-proliferative effect (propidium iodide fluorescence assay), GXF251L; format: cell-based, human
Procedure: (§1) Xenobovide A, B and C inhibited the proliferation of all six tested human tumour cell lines: GXF251L (gastric tumour cell line), LXF529L (lung tumour cell line), MAXF401NL (breast cancer cell line), MEXF462NL (melanoma cell line), PAXF1657L (pancreas tumour cell line) and RXF486L (kidney tumour cell line).
(§2) The anti-proliferative effect was determined according to Dengler et al. (1995, Development of a propidium iodide fluorescence assay for proliferation and cytoxicity assay. Anti-Cancer Drugs 6:522-532).

[2] = system: LXF529L (lung tumour cell line); assay: Anti-proliferative effect (propidium iodide fluorescence assay), LXF529L; format: cell-based, human
Procedure: as §1, §2

[3] = system: MAXF401NL (breast cancer cell line); assay: Anti-proliferative effect (propidium iodide fluorescence assay), MAXF401NL; format: cell-based, human
Procedure: as §1, §2

[4] = system: MEXF462NL (melanoma cell line); assay: Anti-proliferative effect (propidium iodide fluorescence assay), MEXF462NL; format: cell-based, human
Procedure: as §1, §2

[5] = system: PAXF1657L (pancreas tumour cell line); assay: Anti-proliferative effect (propidium iodide fluorescence assay), PAXF1657L; format: cell-based, human
Procedure: as §1, §2

[6] = system: RXF486L (kidney tumour cell line); assay: Anti-proliferative effect (propidium iodide fluorescence assay), RXF486L; format: cell-based, human
Procedure: as §1, §2

larvae of the wax moth = assay: Insecticidal effect, oral toxicity in feed; format: in vivo; conditions: added to feed, 1 mg substance/mL solution, five larvae per box, 35° C., six days, four repeated experiments
Procedure: The insecticidal effect was tested against the larvae of the wax moth, a pathogen in beekeeping. […] To test the oral toxicity, 1 mg substance/mL was dissolved in a 50% aqueous ethanol solution. Five larvae each were transferred into a plastic box (2 cm in diameter) and fed with 1 g food mixture (0.8 mL substance solution, 0.2 mL glycerine (86%) and 1 g wheat bran). The control group was fed with 1 g food mixture without addition of substance (0.4 mL aq. dest., 0.4 mL ethanol, 0.2 mL glycerine (86%) and 1 g wheat bran). The incubation of the larvae was at 35° C. for six days. Subsequently, the dead larvae were counted.

[7] = biological target: glycogen synthase kinase 3beta (Homo sapiens, UniProt P49841); assay: Inhibition of glycogen synthase kinase 3beta (Kinase-Glo luminescent assay); format: biochemical
glycogen synthase kinase 3beta, sequence (P49841 whole entry, species assumed): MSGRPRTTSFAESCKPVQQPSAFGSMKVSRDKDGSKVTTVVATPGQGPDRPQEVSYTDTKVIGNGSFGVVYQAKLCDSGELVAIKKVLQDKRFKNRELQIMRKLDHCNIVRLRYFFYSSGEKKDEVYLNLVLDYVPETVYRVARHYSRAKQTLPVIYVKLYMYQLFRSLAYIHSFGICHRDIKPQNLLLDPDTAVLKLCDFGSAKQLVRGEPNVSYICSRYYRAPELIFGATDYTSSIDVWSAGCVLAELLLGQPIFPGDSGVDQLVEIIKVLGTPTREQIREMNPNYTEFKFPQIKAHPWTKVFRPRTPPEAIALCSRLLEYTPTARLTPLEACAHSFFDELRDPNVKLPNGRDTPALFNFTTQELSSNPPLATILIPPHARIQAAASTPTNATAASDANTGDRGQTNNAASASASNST
Source text: Xenobovide A and B, in a concentration of 16.3 μMol and 15.6 μMol, respectively, inhibited the glycogen synthase kinase 3beta by 21% and 43%, respectively. The performance was according to Baki et al. (2007, A high throughput luminescent assay for glycogen synthase kinase-3beta inhibitors. Assay and Drug Development Technologies. 5:75-83) using the kinase-Glo Luminescent Kinase Assay Kit of the company Promega.

acetylcholine esterase = conditions: read-out: IC50-value, acetylcholine esterase
Procedure: Testing was performed according to Birman (1985, Determination of acetylcholinesterase activity by a new chemiluminescence assay with natural substrate. Biochemical Journal. 225:825-828).

[8] = biological target: phosphodiesterase (PDE-4B2) (Homo sapiens, UniProt Q07343); assay: Inhibition of phosphodiesterase PDE-4B2; format: biochemical; conditions: 163 μg/mL
phosphodiesterase (PDE-4B2), sequence (Q07343 1-564 isoform Q07343-2, species assumed): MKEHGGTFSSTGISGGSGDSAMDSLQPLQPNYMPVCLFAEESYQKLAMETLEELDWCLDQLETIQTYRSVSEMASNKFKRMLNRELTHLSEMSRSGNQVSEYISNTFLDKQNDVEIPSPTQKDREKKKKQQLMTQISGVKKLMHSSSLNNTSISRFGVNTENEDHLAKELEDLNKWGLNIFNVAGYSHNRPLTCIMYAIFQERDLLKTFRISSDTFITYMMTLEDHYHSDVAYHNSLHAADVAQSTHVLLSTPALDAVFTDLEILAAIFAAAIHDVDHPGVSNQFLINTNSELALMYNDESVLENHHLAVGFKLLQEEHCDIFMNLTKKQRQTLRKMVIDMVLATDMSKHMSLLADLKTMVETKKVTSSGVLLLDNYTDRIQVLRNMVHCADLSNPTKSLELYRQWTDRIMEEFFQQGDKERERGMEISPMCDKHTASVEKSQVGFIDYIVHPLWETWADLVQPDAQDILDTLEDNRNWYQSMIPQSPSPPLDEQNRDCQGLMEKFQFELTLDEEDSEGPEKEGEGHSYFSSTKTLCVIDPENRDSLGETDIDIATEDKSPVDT
Procedure: (§3) Xenobovide A in a concentration of 163 μg/mL inhibits the phosphodiesterase (PDE-4B2) by 46%. This enzyme test was carried out according to Hohmann et al. (2009, Caboxamycin, a new antibiotic of the benzoxazole family produced by the deep-sea strain Streptomyces sp. NTK 937. The Journal of Antibiotics. 62:99-104).

[9] = biological target: T1, Protein Tyrosine Phosphatase 1B (PTP1B) (Homo sapiens, UniProt P18031); assay: Inhibition of protein tyrosine phosphatase 1B; format: biochemical; conditions: 26.1 μMol
T1 sequence (P18031 1-435): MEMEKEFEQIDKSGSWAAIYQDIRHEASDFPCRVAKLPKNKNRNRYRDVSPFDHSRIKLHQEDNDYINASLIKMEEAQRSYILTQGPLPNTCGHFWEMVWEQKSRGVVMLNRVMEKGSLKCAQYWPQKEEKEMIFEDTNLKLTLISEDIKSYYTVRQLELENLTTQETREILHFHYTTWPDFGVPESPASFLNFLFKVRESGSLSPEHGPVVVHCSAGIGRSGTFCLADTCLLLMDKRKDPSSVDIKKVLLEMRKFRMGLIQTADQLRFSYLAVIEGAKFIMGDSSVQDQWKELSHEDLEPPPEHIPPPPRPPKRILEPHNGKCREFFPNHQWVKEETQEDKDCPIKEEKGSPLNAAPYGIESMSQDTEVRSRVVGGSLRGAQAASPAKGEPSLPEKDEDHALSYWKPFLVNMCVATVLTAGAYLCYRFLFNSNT
Procedure: as §3, with “26.1 μMol” for “163 μg/mL”, “protein tyrosine phosphotase 1B (PTB1B)” for “phosphodiesterase (PDE-4B2)”, “59%.” for “46%.”

Compound | IC50 [1] | IC50 [2] | IC50 [3] | IC50 [4] | IC50 [5] | IC50 [6] | insecticidal effect (dead larvae) (larvae of the wax moth) | inhibition of glycogen synthase kinase 3beta ([7]; 15.6 μMol) | IC50 (acetylcholine esterase) | inhibition at 163 µg/mL [8] | inhibition of protein tyrosine phosphatase 1B [9] | inhibition of glycogen synthase kinase 3beta ([7]; 16.3 μMol)
CCCCC(C)CC(=O)N[C@@H]1C(=O)N[C@@H](C)C(=O)NC(CC(C)C)C(=O)NC(CC(C)C)C(=O)NC(CC(C)C)C(=O)NC(CC(C)C)C(=O)N[C@@H](C)C(=O)O[C@@H]1C (single isomer, unassigned) [Xenobovide C] | 3 µM | 7.8 µM | 8.5 µM | 9.4 µM | 10.3 µM | 7.6 µM | death of all larvae |  |  |  |  | 
CCCCC(C)CC(=O)N[C@@H]1C(=O)N[C@@H](C)C(=O)NC(CC(C)C)C(=O)NC(CC(C)C)C(=O)NC(CC(C)C)C(=O)NC(CC(C)C)C(=O)N[C@@H](C)C(=O)O[C@@H]1C (single isomer, unassigned) [Xenobovide B] | 2.5 µM | 9.7 µM | 3.2 µM | 5.3 µM | 2.9 µM | 14.5 µM | death of all larvae | 43% |  |  |  | 
CCCCC(C)CC(=O)N[C@@H]1C(=O)N[C@@H](C)C(=O)NC(CC(C)C)C(=O)NC(CC(C)C)C(=O)NC(CC(C)C)C(=O)NC(CC(C)C)C(=O)N[C@@H](C)C(=O)O[C@@H]1C (single isomer, unassigned) [Xenobovide A] | 1.6 µM | 8.5 µM | 2.1 µM | 2.7 µM | 3.5 µM | 12 µM | death of all larvae |  | 53.6 µM | 46% | 59% | 21%
